Reference: paper PMC5746060, “General and Modular Strategy for Designing Potent, Selective, and Pharmacologically Compliant Inhibitors of Rhomboid Proteases” (Cell Chemical Biology, 2017)
Starred links: 1 amine or outer side, 2 acyl side, 3 side chain; linkers in the order of their positions; H or OH if unused. Non-standard residues stand in square brackets, D forms with d. Residues, ends and D or L forms follow the SMILES beside them. *: point of attachment. NH(4-phenylbutyl) = c1ccc(CCCCN*)cc1; X1 = C[C@H](N[*:1])C(=O)C(=O)[*:2]; NHPhenethyl = c1ccc(CCN*)cc1

Tests used:
Assay in all cases: activity-based probe competition assay, rhomboid panel
TmROM = assay type: biochemical, Thermotoga maritima; details: 50 μM
Description: Any enzyme inhibitors to be used as specific tools for cell biology or as starting points for drug development must show sufficient level of selectivity toward their intended target. This is particularly important for compounds that react with the catalytic nucleophile common to many serine hydrolases. Only limited tests of selectivity have been conducted for the currently used rhomboid inhibitors isocoumarins, β-lactams and β-lactones, at best interrogating them against trypsin or chymotrypsin ([Pierrat et al., 2011], [Vosyka et al., 2013]). […]
Figure 5 Selectivity of Peptidyl Ketoamides (A) Selectivity of compounds 9, 10, and 11 for nine rhomboid proteases was profiled using activity-based probe competition assay at 50 μM and 0.5 μM concentration. […] (B) Selectivity of compounds 9, 10, and 11 against human serine hydrolases was analyzed using EnPlex as described ([Bachovchin et al., 2014]).
For inhibitor selectivity profiling against rhomboid proteases ([Wolf et al., 2015]), 400 ng of a purified protein preparation of E. coli GlpG was diluted in 30 μL of reaction buffer (20 mM HEPES, pH 7.4, with 0.05% (w/v) DDM). […] Gels were scanned on a Typhoon Trio+ and analyzed using ImageJ. The intensity of each rhomboid protease band calculated by ImageJ was normalized against its corresponding DMSO-treated counterpart (100% activity) to indicate the residual activity left after inhibition. […]

AarA = target: T1, AarA (Providencia stuartii, UniProt P46116); assay type: biochemical; details: 50 μM and 0.5 μM; outcompeted the ABP even at 500 nM
T1 construct: made in house
T1 sequence (P46116 1-281): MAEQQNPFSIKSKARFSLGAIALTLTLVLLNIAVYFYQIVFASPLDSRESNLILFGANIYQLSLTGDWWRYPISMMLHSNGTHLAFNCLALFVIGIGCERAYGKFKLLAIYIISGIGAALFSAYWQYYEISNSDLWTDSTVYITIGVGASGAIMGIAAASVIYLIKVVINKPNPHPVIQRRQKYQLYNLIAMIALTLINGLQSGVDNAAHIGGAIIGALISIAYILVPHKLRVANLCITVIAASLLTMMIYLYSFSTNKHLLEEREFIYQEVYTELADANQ
Description: (§1) Any enzyme inhibitors to be used as specific tools for cell biology or as starting points for drug development must show sufficient level of selectivity toward their intended target. This is particularly important for compounds that react with the catalytic nucleophile common to many serine hydrolases. […] To map the selectivity of peptidyl ketoamides more objectively and widely, we employed activity-based probe (ABP) competition assays that enable a more general and substrate-independent measurement of inhibitory potency, because they rely solely on the competition between a fluorescently labeled activity-based probe and the tested inhibitor ([Nguyen et al., 2015], [Serim et al., 2012]). The assays we employed used fluorophosphonate ABPs that target the catalytic serine of a wide-range of serine hydrolases ([Bachovchin et al., 2014]), including rhomboids ([Xue et al., 2012]), and are thus very practical general detection reagents even for serine hydrolases for which sensitive substrates might not be available.
(§2) Figure 5 Selectivity of Peptidyl Ketoamides (A) Selectivity of compounds 9, 10, and 11 for nine rhomboid proteases was profiled using activity-based probe competition assay at 50 μM and 0.5 μM concentration. The upper limit of enzyme concentration was 0.4 μM. (B) Selectivity of compounds 9, 10, and 11 against human serine hydrolases was analyzed using EnPlex as described ([Bachovchin et al., 2014]).
(§3) For inhibitor selectivity profiling against rhomboid proteases ([Wolf et al., 2015]), 400 ng of a purified protein preparation of E. coli GlpG was diluted in 30 μL of reaction buffer (20 mM HEPES, pH 7.4, with 0.05% (w/v) DDM). For other rhomboids, amounts were taken that gave similar labeling intensity during profiling. Rhomboids were incubated for 30 min at room temperature with the indicated concentration of compound, 100 μM DCI as positive control, or an equal volume of DMSO as negative control. Next, TAMRA-FP serine hydrolase probe (Thermo Fisher #88318) was added to a final concentration of 1 ìM and incubated for 2 h at 37°C in the dark. The reaction was stopped by addition of 4× Laemmli buffer and the reaction mixture was resolved on 15% SDS-PAGE. Gels were scanned on a Typhoon Trio+ and analyzed using ImageJ. The intensity of each rhomboid protease band calculated by ImageJ was normalized against its corresponding DMSO-treated counterpart (100% activity) to indicate the residual activity left after inhibition. The remaining activity was used to calculate the percentage of inhibition depicted in the heatmap. Selectivity profiles against human serine hydrolases were determined by EnPlex as described previously ([Bachovchin et al., 2014]).

MmRHBDL3 = target: T2, MmRHBDL3 (Mus musculus, UniProt P58873); assay type: biochemical; details: 50 μM and 0.5 μM
T2 construct: made in house
T2 sequence (P58873 1-404): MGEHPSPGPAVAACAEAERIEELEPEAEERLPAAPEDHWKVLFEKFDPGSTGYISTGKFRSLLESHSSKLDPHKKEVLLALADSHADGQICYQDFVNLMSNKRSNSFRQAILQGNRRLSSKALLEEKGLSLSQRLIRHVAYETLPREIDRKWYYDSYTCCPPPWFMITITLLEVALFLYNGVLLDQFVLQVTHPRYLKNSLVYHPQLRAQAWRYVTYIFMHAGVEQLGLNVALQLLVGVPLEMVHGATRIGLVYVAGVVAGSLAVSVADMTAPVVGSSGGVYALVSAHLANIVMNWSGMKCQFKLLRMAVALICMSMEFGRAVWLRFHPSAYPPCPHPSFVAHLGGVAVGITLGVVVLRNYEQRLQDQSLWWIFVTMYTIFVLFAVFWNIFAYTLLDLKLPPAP
Description: as §1, §2, §3

HiGlpG = target: T3, HiGlpG (Haemophilus influenzae, UniProt P44783); assay type: biochemical; details: 50 μM and 0.5 μM; outcompeted the ABP even at 500 nM
T3 construct: made in house
Description: as §1, §2, §3

DmRho1 = target: T4, DmRho1 (Drosophila melanogaster, UniProt P20350); assay type: biochemical; details: 50 μM and 0.5 μM
T4 construct: made in house
T4 sequence (P20350 1-355): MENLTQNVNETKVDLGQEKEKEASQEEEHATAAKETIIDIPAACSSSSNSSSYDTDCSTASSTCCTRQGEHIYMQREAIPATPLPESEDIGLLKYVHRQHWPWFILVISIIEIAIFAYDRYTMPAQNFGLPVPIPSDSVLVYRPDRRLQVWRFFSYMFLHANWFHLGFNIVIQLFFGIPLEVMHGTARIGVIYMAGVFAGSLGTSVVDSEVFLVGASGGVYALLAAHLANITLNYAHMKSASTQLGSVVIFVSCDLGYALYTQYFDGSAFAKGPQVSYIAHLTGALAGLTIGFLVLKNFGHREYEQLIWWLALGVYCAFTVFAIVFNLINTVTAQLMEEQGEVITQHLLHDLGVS
Description: as §1, §2, §3

T3 sequence (P44783 whole entry): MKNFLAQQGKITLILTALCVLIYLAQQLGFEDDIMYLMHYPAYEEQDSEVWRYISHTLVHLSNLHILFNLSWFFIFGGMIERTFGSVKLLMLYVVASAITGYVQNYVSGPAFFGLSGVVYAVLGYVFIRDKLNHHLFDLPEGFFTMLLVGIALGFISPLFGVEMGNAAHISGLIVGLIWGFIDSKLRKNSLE

SMILES | inhibition of ABP labeling of TmROM (TmROM) | competition with ABP labeling of AarA (AarA) | competition with ABP labeling of MmRHBDL3 (MmRHBDL3) | competition with ABP labeling of HiGlpG (HiGlpG) | competition with ABP labeling of DmRho1 (DmRho1)
CC(=O)N[C@@H](CCCNC(=N)N)C(=O)N[C@H](C(=O)N[C@@H](CCCNC(=N)N)C(=O)N[C@@H](Cc1c[nH]cn1)C(=O)N[C@@H](C)C(=O)C(=O)NCCc1ccccc1)C(C)C [compound 9, Ac-RVRHA-CONH-phenylethyl] (Ac-RVRH[X1]-NHPhenethyl) | only partially inhibited | potently competed | none of these compounds were able to compete | potently competed | none of these compounds were able to compete
CC(=O)N[C@@H](CCCNC(=N)N)C(=O)N[C@H](C(=O)N[C@@H](CCCNC(=N)N)C(=O)N[C@@H](Cc1c[nH]cn1)C(=O)N[C@@H](C)C(=O)C(=O)NCCCCc1ccccc1)C(C)C [compound 11, Ac-RVRHA-CONH-phenylbutyl] (Ac-RVRH[X1]-{NH(4-phenylbutyl)}) | only partially inhibited | potently competed | none of these compounds were able to compete | potently competed | none of these compounds were able to compete
